Experimental data: patent publication US20060019952A1, “Anti-viral therapeutics” (ELIXIR PHARMACEUTICALS, INC., priority 2004, published 2006)

Target: T1, GFP-hSIRT2 isoform 1 (Homo sapiens, UniProt Q8IXJ6)
T1 construct: expressed in transfected cells; host or cells: HeLa
T1 sequence (Q8IXJ6 1-389): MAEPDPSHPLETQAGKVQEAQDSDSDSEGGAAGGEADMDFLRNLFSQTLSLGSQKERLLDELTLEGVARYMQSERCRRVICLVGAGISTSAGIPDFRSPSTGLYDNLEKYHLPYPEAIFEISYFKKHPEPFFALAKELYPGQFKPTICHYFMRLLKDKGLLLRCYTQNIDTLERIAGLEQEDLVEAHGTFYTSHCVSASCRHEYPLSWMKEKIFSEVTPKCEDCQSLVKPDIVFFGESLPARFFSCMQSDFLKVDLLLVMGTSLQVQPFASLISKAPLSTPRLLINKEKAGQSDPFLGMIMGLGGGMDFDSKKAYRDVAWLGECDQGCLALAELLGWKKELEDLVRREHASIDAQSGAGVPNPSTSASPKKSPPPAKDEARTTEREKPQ
Experiment: Acetylated tubulin staining in HeLa cells transfected with GFP-hSIRT2 isoform 1
Assay type: cell-based
Conditions: 50 μM compound with 1 μM TSA, added 36 hours post transfection, fixed next morning, versus DMSO
Method: HeLa cells were transfected with GFP-hSIRT2 isoform 1. At 36 hours post transfection 1 μM of TSA and either DMSO or 50 μM of Compound 8 was added. The next morning cells were fixed, permeabilized, and stained for acetylated tubulin.

NC(=O)COC(=O)c1sc2ccccc2c1Cl [Compound 8, 3-Chloro-benzo[b]thiophene-2-carboxylic acid carbamoylmethyl ester]
tubulin acetylation in cells expressing SIRT2 (staining for acetylated tubulin): more highly acetylated
